# Reference: paper PMC3716919, “Oxidative stress disruption of receptor-mediated calcium signaling mechanisms” (Journal of Biomedical Science, 2013)
# Where “and” joins values, the source holds several entries; their conditions need not be identical. Identical values can stand only once. Entries after “also recorded” stand apart in the source; their conditions may differ.
# Key:
# [1] = target: T1, human M3 muscarinic acetylcholine receptor (Homo sapiens, UniProt P20309); assay type: cell-based
# T1 construct: CHO cells expressing the human M3 muscarinic acetylcholine receptor open reading frame; host or cells: CHO cells, stably transfected (CHO-M3)
# [2] = test system: store-operated calcium entry (SOCE) channels; test: Store-operated calcium entry (SOCE) in CHO-M3 cells (fura-2 imaging); assay type: cell-based, Chinese hamster; conditions: for acute effect of direct SOCE channel inhibitors on SOCE: added after activation of SOCE by 10 μM carbamylcholine, honokiol 30 μM in insert, unpublished observations; for initial rate of rise of [Ca2+]i in response to reintroduction of calcium: control cells
# [3] = target: T2, human M3 muscarinic receptor (Homo sapiens, UniProt P20309); assay type: binding
# T2 construct: CHO cells expressing the human M3 muscarinic acetylcholine receptor open reading frame; host or cells: CHO cells, stably transfected (CHO-M3)
# Method: (§1) In some experiments, the cells were exposed to 2 mM tBHP for 90 min before harvesting. Binding was determined by filtering the suspension through glass fiber filters (1 μm pore size) and measuring the amount of radioactivity bound to membranes trapped on the filters by liquid scintillation counting.
# (§2) Binding parameters were averaged from 3 independent experiments. […] 5′-Guanylyl-imidodiphosphate (Gpp(NH)p) was included in some experiments to assess receptor – G protein interactions.
# [4] = target: T3, human M2 muscarinic receptor (Homo sapiens, UniProt P08172); test: [3H]N-methylscopolamine dissociation from M2 receptors expressed in CHO cells; assay type: binding
# T3 sequence (P08172 1-466): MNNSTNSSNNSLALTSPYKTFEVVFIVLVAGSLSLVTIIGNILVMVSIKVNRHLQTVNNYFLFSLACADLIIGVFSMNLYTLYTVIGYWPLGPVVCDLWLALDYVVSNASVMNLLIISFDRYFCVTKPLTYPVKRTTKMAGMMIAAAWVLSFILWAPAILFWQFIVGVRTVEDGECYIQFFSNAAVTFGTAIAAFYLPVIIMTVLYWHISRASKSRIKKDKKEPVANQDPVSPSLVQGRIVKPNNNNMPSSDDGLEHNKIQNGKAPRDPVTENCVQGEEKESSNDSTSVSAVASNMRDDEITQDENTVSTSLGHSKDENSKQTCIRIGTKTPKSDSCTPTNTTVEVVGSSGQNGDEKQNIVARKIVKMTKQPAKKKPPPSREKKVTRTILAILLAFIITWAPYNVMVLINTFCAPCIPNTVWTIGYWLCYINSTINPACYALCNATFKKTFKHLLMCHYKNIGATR
# Method: as §1, §2
# Muscarinic receptors can also be regulated by ligands that bind to an allosteric site. […] Accordingly, we measured ligand dissociation from muscarinic receptors after exposure to 2 mM tBHP for 90 min (Figure 9).
# CHO-M3 cells [5] = test: Endoplasmic reticulum luminal calcium (Mag-Fura 2, saponin-permeabilized cells); assay type: cell-based, Chinese hamster
# Method: The concentration of Ca^2+ in the lumen of the ER ([Ca^2+]L) was measured using the low-affinity calcium indicator, Mag-Fura 2 (Molecular Probes). […] The media was removed and the cells rinsed with BSS and then incubated with Mag-Fura 2 (50 μM) for 60 minutes at room temperature. Mag-Fura 2 was removed and the cells incubated for an additional 30 minutes. Prior to imaging, the BSS was removed and replaced with Ca^2+- and Mg^2+-free BSS. During imaging, the cells were permeabilized by exposure to 0.005% saponin for 70 seconds to release cytosolic calcium. This caused a rapid decrease in total fluorescence intensity following excitation at both 340 and 380 nm, but elimination of the pervasive cytosolic signal allowed detection of ER lumen calcium levels 30 seconds after saponin addition. Following stabilization of the signal (≈100 sec), R340/380 was averaged for 10 seconds in approximately 20 cells on each plate.
# CHO-M3 cells [6] = test: Thapsigargin-induced release of calcium from the ER in CHO-M3 cells (fura-2 imaging)
# CHO-M3 cells [7] = test: Resting cytosolic calcium concentration in CHO-M3 cells (fura-2 imaging); assay type: cell-based, Chinese hamster
# CHO-M3 cells [8] = test: Reactive oxygen species, DCFDA fluorescence; assay type: cell-based, Chinese hamster; conditions: 90 min exposure
# Method: The concentration of reactive oxygen species (ROS) was determined by the […] of 2′,7′-dichlorodihydrofluorescein (DCFDA; Sigma). CHO-M3 cells were plated on a 96 well plate with opaque walls at a density of 30,000 cells/well, and incubated overnight in phenol red-free media. Following a 90 min exposure to tBHP, the media was removed and the cells were washed with BSS. DCFDA (100 μl of a 40 μM solution) was added, and the plate was incubated for 1 h before measuring fluorescence at 485 nm excitation/520 nm emission using a FLUOstar plate reader.
# [9] = 90 min exposure, extracellular calcium present
# T1 sequence (P20309 whole entry): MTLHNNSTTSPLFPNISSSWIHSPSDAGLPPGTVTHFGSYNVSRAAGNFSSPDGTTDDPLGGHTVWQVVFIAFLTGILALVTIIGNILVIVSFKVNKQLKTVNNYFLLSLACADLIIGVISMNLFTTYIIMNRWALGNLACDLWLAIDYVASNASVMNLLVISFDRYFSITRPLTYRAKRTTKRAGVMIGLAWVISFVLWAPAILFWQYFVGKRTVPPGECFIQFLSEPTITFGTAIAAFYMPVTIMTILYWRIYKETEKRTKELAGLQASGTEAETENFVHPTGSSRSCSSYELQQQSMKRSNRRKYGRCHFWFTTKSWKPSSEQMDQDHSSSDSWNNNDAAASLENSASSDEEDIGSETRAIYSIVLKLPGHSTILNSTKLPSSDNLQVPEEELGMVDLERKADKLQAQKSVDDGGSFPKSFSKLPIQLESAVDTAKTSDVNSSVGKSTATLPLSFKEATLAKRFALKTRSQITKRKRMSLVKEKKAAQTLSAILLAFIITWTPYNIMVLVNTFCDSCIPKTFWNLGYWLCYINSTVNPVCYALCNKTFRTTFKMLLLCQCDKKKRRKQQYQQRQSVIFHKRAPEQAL
# T2 sequence (P20309 whole entry): as above
structure (smiles),measurement,setting,value
NCCOB(c1ccccc1)c1ccccc1 [2-aminoethoxydiphenylborane],effect on all calcium responses to carbamylcholine,[1],completely blocked
same,acute effect of direct SOCE channel inhibitors on SOCE,[2],immediate reductions in SOCE; also recorded: immediate reduction of SOCE
"Nc1nc2c(ncn2[C@@H]2O[C@H](COP(=O)(O)OP(=O)(O)NP(=O)(O)O)[C@@H](O)[C@H]2O)c(=O)[nH]1 [Gpp(NH)p, 5′-Guanylyl-imidodiphosphate]",effect on carbamylcholine inhibition curves of [3H]MS binding,[3],shifted the inhibition curves to the right
"Cl.O=S(=O)(c1cccc2c(Cl)cccc12)N1CCCNCC1 [ML 9, 1-(5-chloronaphthalenesulfonyl)homo piperazine hydrochloride]",acute effect of direct SOCE channel inhibitors on SOCE,[2],immediate reduction of SOCE
"C[N+]1(C)[C@@H]2CC(OC(=O)[C@H](CO)c3ccccc3)C[C@H]1[C@@H]1O[C@@H]12 (stereo partly shown) [[^3H]MS, [^3H]N-methylscopolamine]","k−1, rate constant for [3H]MS dissociation",[4],0.027 ± 0.004 min⁻¹ and 0.021 ± 0.006 min⁻¹
same,"k−1, rate constant for [3H]MS dissociation, with gallamine",[4],0.004 ± 0.001 min⁻¹ and 0.005 ± 0.002 min⁻¹
C[N+](C)(C)CCOC(N)=O.[Cl-] [carbamylcholine],initial rate of rise of [Ca2+]i in response to reintroduction of calcium,"[2]; after carbamylcholine in calcium-free medium, 2 mM calcium reintroduced",24 ± 8 nM/s
C=CCc1ccc(O)c(-c2ccc(O)c(CC=C)c2)c1 [honokiol],acute effect of direct SOCE channel inhibitors on SOCE,[2],immediate reductions in SOCE; also recorded: immediate reduction of SOCE
"CC(C)(C)OO [tBHP, tert-butyl hydroperoxide]",decrease of [Ca2+]L,"CHO-M3 cells [5]; 90 min exposure, 0.5-10 mM (abstract)",55%
same,"[Ca2+]L, % of control levels",CHO-M3 cells [5]; pretreatment 1-20 mM for 90 min,≈ 55 % of control
same,effect on the response to M3 receptor activation,"[1]; 90 min exposure, all concentrations at or above 1 mM, no extracellular calcium",depressed
same,effect on the initial calcium response to carbamylcholine,[1]; [9],not significantly affected
same,inhibition of the initial thapsigargin-stimulated release of calcium from the ER,"CHO-M3 cells [6]; 90 min exposure, all concentrations 0.5 to 5 mM, calcium-free medium",50%
same,acute effect on calcium entry after activation of SOCE,[2]; 20 mM added at 120 sec after 10 μM carbamylcholine,did not block calcium entry
same,depression of SOCE after thapsigargin,"[2]; 90 min exposure, 0.5-5 mM, dose-dependent, calcium reintroduced (2 mM)",30-70%
same,effect on ability of thapsigargin-induced calcium release to evoke SOCE,"[2]; 90 min exposure, 0.5-20 mM, extracellular calcium present",severely compromised
same,"effect on ability to maintain the higher level of [Ca2+]i (plateau, SOCE)",[2]; [9],compromised in a concentration-dependent manner
same,effect on allosteric receptor actions,[4]; 2 mM for 90 min,not affected
same,resting [Ca2+]i after exposure (control 26 nM),"CHO-M3 cells [7]; 20 mM tBHP, 90 min, 2 mM extracellular calcium",127 nM
same,resting [Ca2+]i after exposure (control 26 nM),"CHO-M3 cells [7]; 0.5-10 mM tBHP, 90 min (abstract)",up to 127 nM
same,resting calcium concentration after exposure,"CHO-M3 cells [7]; 90 min exposure, Figure 3a",> 100 nM
same,threshold concentration for ROS production,CHO-M3 cells [8],5 mM
same,increase in ROS,CHO-M3 cells [8]; at 10 mM tBHP,up to 400%
same,effect on ability of carbamylcholine to inhibit [3H]MS binding,[3],not affected
same,effect on atropine-induced dissociation of M3 receptor-[3H]MS complex and on gallamine slowing of dissociation,[3],had no effect
same,effect on [3H]MS binding affinity,[3]; 2 mM for 90 min,not affected
C/C=C(/C)C(=O)O[C@H]1C(C)=C2[C@H]([C@@H]1OC(=O)CCCCCCC)[C@@](C)(OC(C)=O)C[C@H](OC(=O)CCC)[C@@]1(O)[C@H]2OC(=O)[C@@]1(C)O [thapsigargin],initial rate of rise of [Ca2+]i in response to thapsigargin,"CHO-M3 cells [6]; control cells, 1 μM thapsigargin, extracellular calcium present",4.3 ± 0.6 nM/s
same,initial rate of rise of [Ca2+]i in response to reintroduction of calcium,[2]; after 1 μM thapsigargin in calcium-free medium,40.0 ± 5.1 nM/s
